Measured values reported in patent publication US20120252852A1 (SANOFI, priority 2011, published 2012).

Legend:
factor Xa = target: T1, factor Xa (Homo sapiens, UniProt P00742); conditions: patients with stable coronary artery disease taking usual comedication; cited from earlier work
T1 construct: host or cells: blood of patients (in vivo / ex vivo)

[1] = Level of impurities in dependency on citric acid (22.8 mmol/L) and storage time (1 mg/mL, autoclaved once, 40° C. and 75% RH, HPLC); type: physicochemical
Procedure: The prepared vials were autoclaved once and were stored at 40° C. and 75% RH (relative humidity).

thrombosis = conditions: rodent, canine and porcine models; cited from earlier work
[2] = target: factor Xa assembled in the prothrombinase complex (Factor Xa, Factor Va, calcium and phospholipid) (Homo sapiens, UniProt P00742); conditions: cited from earlier work
[3] = Level of impurities in dependency on pH and repeated autoclaving (1 mg/mL Otamixaban, citrate composition of Example 5, HPLC); type: physicochemical
Procedure: The appropriate pH value was adjusted by using sodium hydroxide solution (1 M sodium hydroxide) or diluted hydrochloric acid (1 M hydrochloric acid). […] [table] […] The mobile phase was filtered through a 1.5 μm filter. Typically, add 500 mL of mobile phase A to 500 mL of acetonitrile. Mix and degas. [table] [table]

[4] = test system: prothrombin fragments 1+2; conditions: highest dose regimen; versus unfractionated heparin; cited from earlier work
[5] = humans; cited from earlier work
[6] = Level of impurities in dependency on pH and storage time (1 mg/mL, autoclaved one time, stored at 40° C. and 75% RH, HPLC); type: physicochemical; conditions: 40° C. and 75% RH
Procedure: The appropriate pH value was adjusted by using sodium hydroxide solution (1 M sodium hydroxide) or diluted hydrochloric acid (1 M hydrochloric acid). The prepared vials were autoclaved one time and were stored at 40° C. and 75% RH (relative humidity).

[7] = repeated autoclaving, pH 2.5 to 4.7

Chain of factor Xa assembled in the prothrombinase complex (Factor Xa, Factor Va, calcium and phospholipid) (P00742 235-488 limits assumed): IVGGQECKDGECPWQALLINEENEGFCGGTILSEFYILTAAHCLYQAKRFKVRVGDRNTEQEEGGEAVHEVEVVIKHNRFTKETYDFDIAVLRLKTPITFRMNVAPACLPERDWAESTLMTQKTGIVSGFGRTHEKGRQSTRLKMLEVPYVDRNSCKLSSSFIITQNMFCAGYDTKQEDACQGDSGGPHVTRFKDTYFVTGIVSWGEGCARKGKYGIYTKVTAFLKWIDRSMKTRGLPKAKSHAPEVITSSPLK
Chain of factor Xa assembled in the prothrombinase complex (Factor Xa, Factor Va, calcium and phospholipid) (P00742 41-179 limits assumed): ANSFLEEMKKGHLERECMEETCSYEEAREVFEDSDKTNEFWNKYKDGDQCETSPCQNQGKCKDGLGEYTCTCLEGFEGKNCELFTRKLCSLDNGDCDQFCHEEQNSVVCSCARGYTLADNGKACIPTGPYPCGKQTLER
Chain of factor Xa assembled in the prothrombinase complex (Factor Xa, Factor Va, calcium and phospholipid) (P12259 29-737 partner limits assumed): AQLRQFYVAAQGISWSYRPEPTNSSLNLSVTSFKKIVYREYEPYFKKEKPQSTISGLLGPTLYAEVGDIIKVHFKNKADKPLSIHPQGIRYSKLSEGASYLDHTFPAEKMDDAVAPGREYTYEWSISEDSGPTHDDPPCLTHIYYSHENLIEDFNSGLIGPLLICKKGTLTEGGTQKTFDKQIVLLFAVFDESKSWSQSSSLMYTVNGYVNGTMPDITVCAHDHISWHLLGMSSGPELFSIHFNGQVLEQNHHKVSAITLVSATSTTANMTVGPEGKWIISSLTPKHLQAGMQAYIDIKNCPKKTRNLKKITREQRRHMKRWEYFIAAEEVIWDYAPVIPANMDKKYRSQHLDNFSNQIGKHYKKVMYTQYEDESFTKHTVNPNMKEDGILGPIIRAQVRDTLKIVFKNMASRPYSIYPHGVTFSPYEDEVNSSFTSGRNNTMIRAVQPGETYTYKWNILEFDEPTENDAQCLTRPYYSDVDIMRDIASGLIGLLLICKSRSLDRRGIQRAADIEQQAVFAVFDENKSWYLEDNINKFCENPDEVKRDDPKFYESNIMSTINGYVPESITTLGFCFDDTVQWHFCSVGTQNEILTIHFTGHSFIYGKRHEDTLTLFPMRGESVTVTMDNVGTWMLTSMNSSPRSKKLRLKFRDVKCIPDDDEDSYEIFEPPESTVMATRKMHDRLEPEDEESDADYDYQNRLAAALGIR
Chain of factor Xa assembled in the prothrombinase complex (Factor Xa, Factor Va, calcium and phospholipid) (P12259 1574-2224 partner limits assumed): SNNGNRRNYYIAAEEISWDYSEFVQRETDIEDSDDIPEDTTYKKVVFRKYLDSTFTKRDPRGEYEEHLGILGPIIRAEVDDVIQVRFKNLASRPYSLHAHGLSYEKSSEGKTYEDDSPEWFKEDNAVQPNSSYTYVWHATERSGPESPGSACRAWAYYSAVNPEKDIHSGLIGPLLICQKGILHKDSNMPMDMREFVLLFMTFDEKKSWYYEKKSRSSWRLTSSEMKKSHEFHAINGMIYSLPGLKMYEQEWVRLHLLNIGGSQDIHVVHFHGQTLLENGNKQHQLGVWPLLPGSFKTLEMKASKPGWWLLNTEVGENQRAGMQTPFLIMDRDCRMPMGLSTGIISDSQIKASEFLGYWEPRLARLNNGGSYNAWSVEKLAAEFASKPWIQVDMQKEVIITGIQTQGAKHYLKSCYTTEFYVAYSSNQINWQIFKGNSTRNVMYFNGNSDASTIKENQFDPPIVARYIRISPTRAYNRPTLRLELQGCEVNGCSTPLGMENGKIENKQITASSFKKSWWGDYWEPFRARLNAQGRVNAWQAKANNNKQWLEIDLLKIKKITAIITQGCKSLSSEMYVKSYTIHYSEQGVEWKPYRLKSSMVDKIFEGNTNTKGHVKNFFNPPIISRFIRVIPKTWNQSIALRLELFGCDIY
T1 sequence (P00742 235-488 limits assumed): as the sequence (P00742 235-488 limits assumed) above
T1 sequence (P00742 41-179 limits assumed): as the sequence (P00742 41-179 limits assumed) above

## COC(=O)[C@H](Cc1cccc(C(=N)N)c1)[C@@H](C)NC(=O)c1ccc(-c2cc[n+]([O-])cc2)cc1 (mixture of isomers) [Otamixaban, Methyl (2R,3R)-2-{3-[amino(imino)methyl]benzyl}-3-{[4-(1-oxidopyridin-4-yl)benzoyl]amino}butanoate]
Factor Xa
  Factor Xa inhibition in patients: dose-dependent, rapid direct factor Xa inhibition
[1]; pH 3.0/3.1 (start/1 month), 1 month
  Total impurities: 1.33%
[1]; pH 3.0/3.1 (start/1 month), start
  Total impurities: 0.87%
[1]; pH 3.6/3.6 (start/1 month), 1 month
  Total impurities: 1.06%
[1]; pH 3.6/3.6 (start/1 month), start
  Total impurities: 0.83%
[1]; pH 4.0/4.1 (start/1 month), 1 month
  Total impurities: 1.17%
[1]; pH 4.0/4.1 (start/1 month), start
  Total impurities: 0.98%
[1]; pH 4.6/4.6 (start/1 month), 1 month
  Total impurities: 1.75%
[1]; pH 4.6/4.6 (start/1 month), start
  Total impurities: 1.51%
[1]; pH 5.1/5.1 (start/1 month), 1 month
  Total impurities: 3.80%
[1]; pH 5.1/5.1 (start/1 month), start
  Total impurities: 3.57%
[1]; pH 6.1/6.1 (start/1 month), 1 month
  Total impurities: 28.16%
[1]; pH 6.1/6.1 (start/1 month), start
  Total impurities: 27.12%
thrombosis
  Efficacy in models of thrombosis: highly efficacious
[2]
  Inhibition of factor Xa assembled in the prothrombinase complex: inhibited
[3]; pH 2.5, 0 autoclaving
  Increase of Formula III (carbamoyl-benzyl butyric acid methyl ester): 0.39%
[3]; pH 2.5, 1 autoclaving
  Increase of Formula III (carbamoyl-benzyl butyric acid methyl ester): 0.71%
[3]; pH 2.5, 2 autoclaving
  Increase of Formula III (carbamoyl-benzyl butyric acid methyl ester): 1.02%
[3]; pH 2.5, 3 autoclaving
  Increase of Formula III (carbamoyl-benzyl butyric acid methyl ester): 1.32%
[3]; pH 3.0, 0 autoclaving
  Increase of Formula III (carbamoyl-benzyl butyric acid methyl ester): 0.39%
[3]; pH 3.0, 1 autoclaving
  Increase of Formula III (carbamoyl-benzyl butyric acid methyl ester): 0.74%
[3]; pH 3.0, 2 autoclaving
  Increase of Formula III (carbamoyl-benzyl butyric acid methyl ester): 1.09%
[3]; pH 3.0, 3 autoclaving
  Increase of Formula III (carbamoyl-benzyl butyric acid methyl ester): 1.43%
[3]; pH 3.2, 0 autoclaving
  Increase of Formula III (carbamoyl-benzyl butyric acid methyl ester): 0.39%
[3]; pH 3.2, 1 autoclaving
  Increase of Formula III (carbamoyl-benzyl butyric acid methyl ester): 0.76%
[3]; pH 3.2, 2 autoclaving
  Increase of Formula III (carbamoyl-benzyl butyric acid methyl ester): 1.13%
[3]; pH 3.2, 3 autoclaving
  Increase of Formula III (carbamoyl-benzyl butyric acid methyl ester): 1.50%
[3]; pH 3.5, 0 autoclaving
  Increase of Formula III (carbamoyl-benzyl butyric acid methyl ester): 0.39%
[3]; pH 3.5, 1 autoclaving
  Increase of Formula III (carbamoyl-benzyl butyric acid methyl ester): 0.81%
[3]; pH 3.5, 2 autoclaving
  Increase of Formula III (carbamoyl-benzyl butyric acid methyl ester): 1.23%
[3]; pH 3.5, 3 autoclaving
  Increase of Formula III (carbamoyl-benzyl butyric acid methyl ester): 1.65%
[3]; pH 3.7 (first row), 0 autoclaving
  Increase of Formula III (carbamoyl-benzyl butyric acid methyl ester): 0.39%
[3]; pH 3.7 (first row), 1 autoclaving
  Increase of Formula III (carbamoyl-benzyl butyric acid methyl ester): 0.87%
[3]; pH 3.7 (first row), 2 autoclaving
  Increase of Formula III (carbamoyl-benzyl butyric acid methyl ester): 1.33%
[3]; pH 3.7 (first row), 3 autoclaving
  Increase of Formula III (carbamoyl-benzyl butyric acid methyl ester): 1.80%
[3]; pH 3.7 (second row), 0 autoclaving
  Increase of Formula III (carbamoyl-benzyl butyric acid methyl ester): 0.39%
[3]; pH 3.7 (second row), 1 autoclaving
  Increase of Formula III (carbamoyl-benzyl butyric acid methyl ester): 0.84%
[3]; pH 3.7 (second row), 2 autoclaving
  Increase of Formula III (carbamoyl-benzyl butyric acid methyl ester): 1.28%
[3]; pH 3.7 (second row), 3 autoclaving
  Increase of Formula III (carbamoyl-benzyl butyric acid methyl ester): 1.71%
[3]; pH 4.0, 0 autoclaving
  Increase of Formula III (carbamoyl-benzyl butyric acid methyl ester): 0.39%
[3]; pH 4.0, 1 autoclaving
  Increase of Formula III (carbamoyl-benzyl butyric acid methyl ester): 0.95%
[3]; pH 4.0, 2 autoclaving
  Increase of Formula III (carbamoyl-benzyl butyric acid methyl ester): 1.48%
[3]; pH 4.0, 3 autoclaving
  Increase of Formula III (carbamoyl-benzyl butyric acid methyl ester): 2.02%
[3]; pH 4.2, 0 autoclaving
  Increase of Formula III (carbamoyl-benzyl butyric acid methyl ester): 0.39%
[3]; pH 4.2, 1 autoclaving
  Increase of Formula III (carbamoyl-benzyl butyric acid methyl ester): 1.08%
[3]; pH 4.2, 2 autoclaving
  Increase of Formula III (carbamoyl-benzyl butyric acid methyl ester): 1.75%
[3]; pH 4.2, 3 autoclaving
  Increase of Formula III (carbamoyl-benzyl butyric acid methyl ester): 2.42%
[3]; pH 4.5, 0 autoclaving
  Increase of Formula III (carbamoyl-benzyl butyric acid methyl ester): 0.39%
[3]; pH 4.5, 1 autoclaving
  Increase of Formula III (carbamoyl-benzyl butyric acid methyl ester): 1.40%
[3]; pH 4.5, 2 autoclaving
  Increase of Formula III (carbamoyl-benzyl butyric acid methyl ester): 2.37%
[3]; pH 4.5, 3 autoclaving
  Increase of Formula III (carbamoyl-benzyl butyric acid methyl ester): 3.36%
[3]; pH 4.7, 0 autoclaving
  Increase of Formula III (carbamoyl-benzyl butyric acid methyl ester): 0.39%
[3]; pH 4.7, 1 autoclaving
  Increase of Formula III (carbamoyl-benzyl butyric acid methyl ester): 1.84%
[3]; pH 4.7, 2 autoclaving
  Increase of Formula III (carbamoyl-benzyl butyric acid methyl ester): 3.20%
[3]; pH 4.7, 3 autoclaving
  Increase of Formula III (carbamoyl-benzyl butyric acid methyl ester): 4.58%
[3]; [7]
  Levels of Formula II (carbamimidoyl acid) versus pH: minimum at pH 4
  Levels of Formula III (carbamoyl methyl ester) versus pH: lowest at the lowest pH
[4]
  Reduction of prothrombin fragments 1+2: reduced prothrombin fragments 1+2 significantly more than unfractionated heparin
[5]
  Clinical efficacy, safety and tolerability: efficacious, safe and well tolerated
[6]
  Level of Formula II versus pH over storage time: increased faster with lower pH
